Several values for one entry are separate records, joined by “and”; a condition that tells them apart may be missing. Equal values may be shown once. Toxic doses and inconclusive results are not listed.
Tested on: AKR/Lw mice, AKR lymphoma ip, median survival T/C
Experiment: NCI In Vivo Anticancer Drug Screen. Data for tumor model Lymphoma AKR (Transplanted) (intraperitoneal) in AKR/Lw mice
Settings: endpoint: median survival time, higher = longer survival
Experimental: The antitumor activity of compounds was measured in mice bearing transplantable tumors. Survival or tumor size were measured and the results are expressed as the measurement made in the treated group (T) divided by the measurement made in the vehicle treated control group (C). The tumor model used in this assay is Lymphoma AKR (Transplanted) (intraperitoneal) in AKR/Lw mice

[1] = dose: 100.0 mg/kg/injection, schedule: Q01DX001 (ip), vehicle: saline
[2] = dose: 200.0 mg/kg/injection, schedule: Q01DX001 (ip), vehicle: saline
[3] = dose: 400.0 mg/kg/injection, schedule: Q01DX001 (ip), vehicle: saline
[4] = dose: 100.0 mg/kg/injection, schedule: Q04DX003 (ip), vehicle: saline

CN(C)C(=O)c1cccc(COc2ccc(N3C(N)=NC(N)=NC3(C)C)cc2Cl)c1
T/C (dose: 0.25 mg/kg/injection, schedule: Q04DX003 (ip), vehicle: saline): 105 % of control | T/C (dose: 0.5 mg/kg/injection, schedule: Q04DX003 (ip), vehicle: saline): 108 % of control | T/C (dose: 1.0 mg/kg/injection, schedule: Q04DX003 (ip), vehicle: saline): 97 % of control | T/C (dose: 1.2 mg/kg/injection, schedule: Q01DX009 (ip), vehicle: saline): 100 % of control | T/C (dose: 1.25 mg/kg/injection, schedule: Q01DX009 (ip), vehicle: saline): 106 % of control | T/C (dose: 2.0 mg/kg/injection, schedule: Q04DX003 (ip), vehicle: saline): 114 % of control | T/C (dose: 3.1 mg/kg/injection, schedule: Q01DX009 (ip), vehicle: saline): 100 % of control | T/C (dose: 4.0 mg/kg/injection, schedule: Q04DX003 (ip), vehicle: saline): 114 % of control | T/C (dose: 6.2 mg/kg/injection, schedule: Q01DX009 (ip), vehicle: saline): 94 % of control and 97 % of control and 108 % of control | T/C (dose: 8.0 mg/kg/injection, schedule: Q04DX003 (ip), vehicle: water): 100 % of control | T/C (dose: 10.0 mg/kg/injection, schedule: Q04DX003 (ip), vehicle: saline): 105 % of control | T/C (dose: 12.0 mg/kg/injection, schedule: Q01DX001 (ip), vehicle: saline): 112 % of control | T/C (dose: 15.0 mg/kg/injection, schedule: Q01DX009 (ip), vehicle: saline): 112 % of control | T/C (dose: 16.0 mg/kg/injection, schedule: Q04DX003 (ip), vehicle: water): 109 % of control | T/C (dose: 18.0 mg/kg/injection, schedule: Q04DX003 (ip), vehicle: saline): 109 % of control | T/C (dose: 25.0 mg/kg/injection, schedule: Q01DX001 (ip), vehicle: saline): 112 % of control | T/C (dose: 32.0 mg/kg/injection, schedule: Q04DX003 (ip), vehicle: water): 120 % of control | T/C (dose: 35.0 mg/kg/injection, schedule: Q04DX003 (ip), vehicle: saline): 116 % of control and 120 % of control | T/C (dose: 37.5 mg/kg/injection, schedule: Q04DX003 (ip), vehicle: saline): 116 % of control | T/C (dose: 64.0 mg/kg/injection, schedule: Q04DX003 (ip), vehicle: water): 105 % of control

OCC1(O)CC(O)C(O)(CO)CC1O (centres undefined)
T/C [1]: 97 % of control | T/C [2]: 116 % of control | T/C [3]: 104 % of control

O=c1[nH]cc(-c2ccccc2)c(=O)[nH]1
T/C [1]: 94 % of control | T/C [2]: 88 % of control | T/C [3]: 97 % of control

Clc1nnc(Nc2ccccc2)c2ccccc12
T/C (dose: 25.0 mg/kg/injection, schedule: Q04DX003 (ip), vehicle: Klucel (hydroxypropylcellulose) (HPC)): 86 % of control | T/C (dose: 50.0 mg/kg/injection, schedule: Q04DX003 (ip), vehicle: Klucel (hydroxypropylcellulose) (HPC)): 98 % of control | T/C (dose: 100.0 mg/kg/injection, schedule: Q01DX001 (ip), vehicle: Klucel (hydroxypropylcellulose) (HPC)): 92 % of control | T/C (dose: 100.0 mg/kg/injection, schedule: Q04DX003 (ip), vehicle: Klucel (hydroxypropylcellulose) (HPC)): 92 % of control | T/C [4]: 100 % of control | T/C (dose: 200.0 mg/kg/injection, schedule: Q01DX001 (ip), vehicle: Klucel (hydroxypropylcellulose) (HPC)): 96 % of control | T/C (dose: 400.0 mg/kg/injection, schedule: Q01DX001 (ip), vehicle: Klucel (hydroxypropylcellulose) (HPC)): 96 % of control

O=C1N[C@@H]([C@H]2CC[C@H](Cl)CN2)C(=O)N[C@H]1[C@H]1CC[C@H](Cl)CN1
T/C (dose: 0.5 mg/kg/injection, schedule: Q01DX001 (ip), vehicle: water): 113 % of control | T/C (dose: 1.0 mg/kg/injection, schedule: Q01DX001 (ip), vehicle: water): 111 % of control | T/C (dose: 2.0 mg/kg/injection, schedule: Q01DX001 (ip), vehicle: saline): 102 % of control and 105 % of control | T/C (dose: 2.0 mg/kg/injection, schedule: Q01DX001 (ip), vehicle: water): 114 % of control and 119 % of control | T/C (dose: 2.0 mg/kg/injection, schedule: Q01DX009 (ip), vehicle: water): 178 % of control | T/C (dose: 4.0 mg/kg/injection, schedule: Q01DX001 (ip), vehicle: saline): 102 % of control | T/C (dose: 4.0 mg/kg/injection, schedule: Q01DX001 (ip), vehicle: water): 117 % of control | T/C (dose: 8.0 mg/kg/injection, schedule: Q01DX001 (ip), vehicle: saline): 122 % of control | T/C (dose: 8.0 mg/kg/injection, schedule: Q01DX001 (ip), vehicle: water): 171 % of control and 200 % of control | T/C (dose: 16.0 mg/kg/injection, schedule: Q01DX001 (ip), vehicle: saline): 108 % of control | T/C (dose: 16.0 mg/kg/injection, schedule: Q01DX001 (ip), vehicle: water): 207 % of control

O=C(NC(CSSCC(NC(=O)OCc1ccccc1)C(=O)O)C(=O)O)OCc1ccccc1 (centres undefined)
T/C [1]: 107 % of control | T/C [4]: 100 % of control | T/C [2]: 107 % of control | T/C [3]: 102 % of control | T/C (dose: 400.0 mg/kg/injection, schedule: Q04DX003 (ip), vehicle: saline): 89 % of control

NC(=S)N/N=C/c1ccccn1
T/C (dose: 0.12 mg/kg/injection, schedule: Q03HX032 (ip), vehicle: saline with Tween-80): 122 % of control | T/C (dose: 0.25 mg/kg/injection, schedule: Q03HX032 (ip), vehicle: saline with Tween-80): 113 % of control | T/C (dose: 0.5 mg/kg/injection, schedule: Q03HX032 (ip), vehicle: saline with Tween-80): 122 % of control | T/C (dose: 1.0 mg/kg/injection, schedule: Q03HX032 (ip), vehicle: saline with Tween-80): 114 % of control | T/C (dose: 1.25 mg/kg/injection, schedule: Q01DX009 (ip), vehicle: saline with Tween-80): 96 % of control | T/C (dose: 2.0 mg/kg/injection, schedule: Q04DX003 (ip), vehicle: saline with Tween-80): 103 % of control | T/C (dose: 3.5 mg/kg/injection, schedule: Q04DX003 (ip), vehicle: saline with Tween-80): 96 % of control | T/C (dose: 4.0 mg/kg/injection, schedule: Q04DX003 (ip), vehicle: saline with Tween-80): 116 % of control | T/C (dose: 5.0 mg/kg/injection, schedule: Q01DX009 (ip), vehicle: saline with Tween-80): 94 % of control | T/C (dose: 5.3 mg/kg/injection, schedule: Q04DX003 (ip), vehicle: saline with Tween-80): 106 % of control | T/C (dose: 8.0 mg/kg/injection, schedule: Q04DX003 (ip), vehicle: saline with Tween-80): 109 % of control | T/C (dose: 13.0 mg/kg/injection, schedule: Q04DX003 (ip), vehicle: saline with Tween-80): 112 % of control

COC(=O)C1(C)CCC(c2ccc(C)cc2)=C(CC(=O)O)C1 (centres undefined)
T/C [1]: 97 % of control | T/C [2]: 94 % of control | T/C [3]: 94 % of control

— PubChem BioAssay AID190 (DTP/NCI, 2004)
